pIC50: −log10 of the molar value.
What was measured:
human Factor 11 mRNA [1] = assay: Dose-dependent inhibition of human Factor 11 in HepG2 cells, electroporation 625-20,000 nM (Example 5); format: cell-based; settings: ~16 hours
Description: The gapmers were also transfected via electroporation and their dose dependent inhibition of human Factor 11 mRNA was measured. Cells were plated at a density of 20,000 cells per well and transfected via electroporation with 625 nM, 1250 nM, 2500 nM, 5,000 nM, 10,000 nM, and 20,000 nM concentrations of antisense oligonucleotide, as specified in Table 12. After a treatment period of approximately 16 hours, RNA was isolated from the cells and human Factor 11 mRNA levels were measured by quantitative real-time PCR. Human Factor 11 primer probe set RTS 2966 was used to measure mRNA levels. Factor 11 mRNA levels were adjusted according to total RNA content, as measured by RIBOGREEN. Results are presented as percent inhibition of human Factor 11, relative to untreated control cells.

human Factor 11 mRNA [2] = assay: Dose-dependent inhibition of human Factor 11 in cyano primary hepatocytes, electroporation (Example 6); format: cell-based; settings: ~16 hours
Description: Cells were plated at a density of 35,000 cells per well and transfected via electroporation with 0.74 nM, 2.2 nM, 6.7 nM, 20 nM, 60 nM, and 180 nM concentrations of antisense oligonucleotide, as specified in Table 13. After a treatment period of approximately 16 hours, RNA was isolated from the cells and human Factor 11 mRNA levels were measured by quantitative real-time PCR. Human Factor 11 primer probe set RTS 2966 was used to measure mRNA levels. Factor 11 mRNA levels were adjusted according to total RNA content, as measured by RIBOGREEN. Results are presented as percent inhibition of human Factor 11, relative to untreated control cells.

human Factor 11 mRNA [3] = assay: Dose-dependent inhibition of human Factor 11 in HepB3 cells, lipofectin (Example 7); format: cell-based; settings: for percent inhibition of Factor 11 mRNA relative to untreated control cells: ~16 hours
Description: Cells were plated at a density of 4,000 cells per well and transfected using lipofectin reagent with 2.3 nM, 4.7 nM, 9.4 nM, 18.75 nM, 37.5 nM, and 75 nM concentrations of antisense oligonucleotide, as specified in Table 14. After a treatment period of approximately 16 hours, RNA was isolated from the cells and human Factor 11 mRNA levels were measured by quantitative real-time PCR. Human Factor 11 primer probe set RTS 2966 was used to measure mRNA levels. Factor 11 mRNA levels were adjusted according to total RNA content, as measured by RIBOGREEN. Results are presented as percent inhibition of Factor 11, relative to untreated control cells.

[4] = Tolerability in CD1 mice: organ weight (Example 33); format: in vivo; settings: 50 mg/kg s.c. twice a week, vs PBS control, normalized to body weight
Description: Three days after the last dose was administered to all groups, the mice were sacrificed.

[5] = Tolerability in Sprague-Dawley rats: body weight and organ weight (Example 35); format: in vivo; settings: 50 mg/kg s.c. twice per week for 6 weeks; for Percent change: Body weight: percent change over the weights at the start of the study; for Percent change in organ weight: Kidney / Percent change in organ weight: Liver / Percent change in organ weight: Spleen: vs saline control, normalized to body weight
Description: Urine samples were taken before the start of treatment.
The body weights are presented in Table 71 and are expressed as a percent change over the weights taken at the start of the study.

[6] = Viscosity of ISIS antisense oligonucleotides, micro-viscometer at 25 °C (Example 47); format: physicochemical; settings: for Concentration: concentration of the viscosity sample, UV reading at 260 nM at 85° C.; for Viscosity: in water, micro-viscometer at 25° C., at the concentration of the same line
Procedure, shortened: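 Oligonucleotide (32-35 mg) was dissolved in 120 μL water by heating at 50° C, and viscosity was measured by micro-viscometer at 25° C. Concentration was checked by UV at 260 nm at 85° C on a dilution in water. Screening cut-off: >40 cP at 165-185 mg/mL.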

Substance	percent inhibition of human Factor 11 mRNA relative to untreated control cells (human Factor 11 mRNA [1]; 625 nM) [%]	percent inhibition of human Factor 11 mRNA relative to untreated control cells (human Factor 11 mRNA [1]; 1250 nM) [%]	percent inhibition of human Factor 11 mRNA relative to untreated control cells (human Factor 11 mRNA [1]; 2500 nM) [%]	percent inhibition of human Factor 11 mRNA relative to untreated control cells (human Factor 11 mRNA [1]; 5000 nM) [%]	percent inhibition of human Factor 11 mRNA relative to untreated control cells (human Factor 11 mRNA [1]; 10000 nM) [%]	percent inhibition of human Factor 11 mRNA relative to untreated control cells (human Factor 11 mRNA [1]; 20000 nM) [%]	percent inhibition of human Factor 11 mRNA relative to untreated control cells (human Factor 11 mRNA [2]; 0.74 nM) [%]	percent inhibition of human Factor 11 mRNA relative to untreated control cells (human Factor 11 mRNA [2]; 2.2 nM) [%]	percent inhibition of human Factor 11 mRNA relative to untreated control cells (human Factor 11 mRNA [2]; 6.7 nM) [%]	percent inhibition of human Factor 11 mRNA relative to untreated control cells (human Factor 11 mRNA [2]; 20 nM) [%]	percent inhibition of human Factor 11 mRNA relative to untreated control cells (human Factor 11 mRNA [2]; 60 nM) [%]	percent inhibition of human Factor 11 mRNA relative to untreated control cells (human Factor 11 mRNA [2]; 180 nM) [%]	pIC50 (human Factor 11 mRNA [3])	percent inhibition of Factor 11 mRNA relative to untreated control cells (human Factor 11 mRNA [3]; 2.3 nM) [%]	percent inhibition of Factor 11 mRNA relative to untreated control cells (human Factor 11 mRNA [3]; 4.7 nM) [%]	percent inhibition of Factor 11 mRNA relative to untreated control cells (human Factor 11 mRNA [3]; 9.4 nM) [%]	percent inhibition of Factor 11 mRNA relative to untreated control cells (human Factor 11 mRNA [3]; 18.75 nM) [%]	percent inhibition of Factor 11 mRNA relative to untreated control cells (human Factor 11 mRNA [3]; 37.5 nM) [%]	percent inhibition of Factor 11 mRNA relative to untreated control cells (human Factor 11 mRNA [3]; 75 nM) [%]	Percent change in kidney weight ([4]; 2 weeks)	further results
416858 (antisense ACGGCATTGGTGCACAGTTT; 5-10-5 gapmer, further chemistry not given here) [compound 416858]	65	77	87	89	93	93	2	13	22	44	63	68	7.92	17	34	43	57	74	62	+1%	Percent change in liver weight ([4]; 2 weeks): +7%; Percent change in spleen weight ([4]; 2 weeks): −2%; Percent change in kidney weight ([4]; 4 weeks): −18%; Percent change in liver weight ([4]; 4 weeks): +1%; Percent change in spleen weight ([4]; 4 weeks): +8%; Percent change in kidney weight ([4]; 6 weeks): −10%; Percent change in liver weight ([4]; 6 weeks): +10%; Percent change in spleen weight ([4]; 6 weeks): +28%; Percent change: Body weight [5]: −21%; Percent change in organ weight: Kidney [5]: +5%; Percent change in organ weight: Liver [5]: +8%; Percent change in organ weight: Spleen [5]: +187%; Concentration [6]: 166 mg/mL; Viscosity [6]: 10 cP
416825 (antisense GCCCTTCATGTCTAGGTCCA; 5-10-5 gapmer, further chemistry not given here) [compound 416825]	69	84	91	94	96	97	5	22	51	61	77	84	7.46	0	15	34	36	53	59	−12%	Percent change in liver weight ([4]; 2 weeks): +5%; Percent change in spleen weight ([4]; 2 weeks): −12%; Percent change in kidney weight ([4]; 4 weeks): −12%; Percent change in liver weight ([4]; 4 weeks): +22%; Percent change in spleen weight ([4]; 4 weeks): +19%; Percent change in kidney weight ([4]; 6 weeks): −11%; Percent change in liver weight ([4]; 6 weeks): +13%; Percent change in spleen weight ([4]; 6 weeks): +21%; Percent change: Body weight [5]: −18%; Percent change in organ weight: Kidney [5]: +25%; Percent change in organ weight: Liver [5]: +20%; Percent change in organ weight: Spleen [5]: +245%
416850 (antisense TGCACAGTTTCTGGCAGGCC; 5-10-5 gapmer, further chemistry not given here) [compound 416850]	69	80	87	90	93	96	2	20	24	65	69	67	7.89	22	32	43	56	75	60	−0%	Percent change in liver weight ([4]; 2 weeks): +5%; Percent change in spleen weight ([4]; 2 weeks): −4%; Percent change in kidney weight ([4]; 4 weeks): −12%; Percent change in liver weight ([4]; 4 weeks): +3%; Percent change in spleen weight ([4]; 4 weeks): +6%; Percent change in kidney weight ([4]; 6 weeks): −11%; Percent change in liver weight ([4]; 6 weeks): +6%; Percent change in spleen weight ([4]; 6 weeks): +48%; Percent change: Body weight [5]: −33%; Percent change in organ weight: Kidney [5]: +47%; Percent change in organ weight: Liver [5]: +23%; Percent change in organ weight: Spleen [5]: +354%; Concentration [6]: 152 mg/mL; Viscosity [6]: 67 cP

From patent publication US20230263822A1, “MODULATION OF FACTOR 11 EXPRESSION” (Ionis Pharmaceuticals, Inc., priority 2008, published 2023)
